Experimental data as given in ChEMBL document CHEMBL4602694, “Suppression of Drug-Resistant Non-Small-Cell Lung Cancer with Inhibitors Targeting Minichromosomal Maintenance Protein” (J Med Chem, 2020).
Activity calls are given as the source filed them. The calls are words filed in the database; no cut-off is given here.

Key:
[1] = Selectivity index, ratio of IC50 for human bronchial epithelial cells to IC50 for human CL1-5 cells; assay type: toxicity; details: human bronchial epithelial cells versus CL1-5 cells, read-out: Ratio IC50
NCI-H1975 [2] = assay: Cell cycle arrest in human NCI-H1975 cells assessed as BrdU positive cells at 140 nM incubated for 48 hrs by BrdUrd incorporation assay (reference value: 34 +/- 5.6 %); assay type: functional
[3] = molecular target: T1, DNA replication licensing factor MCM3 (Homo sapiens) (UniProt P25205); assay: Induction of ubiquitination of MCM3 in human NCI-H1975 cells incubated for 48 hrs by immunoblot analysis (reference value: 1); assay type: cell-based
T1 sequence (whole entry): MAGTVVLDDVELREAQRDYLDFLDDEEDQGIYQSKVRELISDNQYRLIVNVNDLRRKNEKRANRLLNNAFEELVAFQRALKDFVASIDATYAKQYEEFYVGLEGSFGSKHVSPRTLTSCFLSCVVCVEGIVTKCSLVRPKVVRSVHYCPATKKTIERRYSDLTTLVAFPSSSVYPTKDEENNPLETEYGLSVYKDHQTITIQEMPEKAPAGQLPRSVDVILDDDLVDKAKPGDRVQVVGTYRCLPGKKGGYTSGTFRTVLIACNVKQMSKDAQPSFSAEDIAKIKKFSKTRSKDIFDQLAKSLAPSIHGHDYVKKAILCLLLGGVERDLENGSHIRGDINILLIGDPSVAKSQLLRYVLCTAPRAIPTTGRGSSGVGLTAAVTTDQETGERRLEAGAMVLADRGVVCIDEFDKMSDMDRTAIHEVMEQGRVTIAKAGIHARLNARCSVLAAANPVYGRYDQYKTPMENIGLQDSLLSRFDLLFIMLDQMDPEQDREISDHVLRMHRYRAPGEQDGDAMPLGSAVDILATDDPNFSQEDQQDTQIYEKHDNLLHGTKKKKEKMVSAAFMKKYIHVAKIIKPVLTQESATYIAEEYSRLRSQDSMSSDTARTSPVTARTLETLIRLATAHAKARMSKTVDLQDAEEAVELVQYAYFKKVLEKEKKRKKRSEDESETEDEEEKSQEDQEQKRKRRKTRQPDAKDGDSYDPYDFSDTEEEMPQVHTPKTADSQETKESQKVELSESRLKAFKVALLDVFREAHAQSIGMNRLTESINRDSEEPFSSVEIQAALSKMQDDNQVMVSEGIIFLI

[4] = molecular target: DNA replication licensing factor MCM7 (Homo sapiens) (UniProt P33993); assay: Induction of ubiquitination of MCM7 in human NCI-H1975 cells incubated for 48 hrs by immunoblot analysis (reference value: 1); assay type: cell-based
NCI-H1975 [5] = assay: Induction of apoptosis in human NCI-H1975 cells assessed as increase in cleaved caspase 3 level at 140 nM incubated upto 72 hrs by immunoblotting analysis; assay type: functional, cell-based
[6] = Toxicity in athymic nude BALB/c mouse xenografted with human NCI-H1975 cells assessed as effect on serum blood urea nitrogen at 1 or 4 mg/kg, ip administered for 4 weeks; assay type: organism-based; details: in vivo, 672 h
[7] = molecular target: DNA replication licensing factor MCM7 (Homo sapiens) (UniProt P33993); assay: Induction of ubiquitination of MCM7 in human NCI-H1975 cells at 140 nM in presence of MG132 incubated for 48 hrs followed by MG132 addition and measured after 12 hrs by immunoblot analysis; assay type: cell-based
[8] = molecular target: DNA replication licensing factor MCM2 (Homo sapiens) (UniProt P49736); assay: Induction of ubiquitination of MCM2 in human NCI-H1975 cells in presence of MG132 incubated for 48 hrs followed by MG132 addition and measured after 12 hrs by immunoblot analysis (reference value: 1.4); assay type: cell-based
[9] = molecular target: T1, DNA replication licensing factor MCM3 (Homo sapiens); assay: Induction of ubiquitination of MCM3 in human NCI-H1975 cells incubated for 24 hrs by immunoblot analysis (reference value: 1); assay type: cell-based
NCI-H1975 [10] = assay: Antiproliferative activity against human NCI-H1975 cells knock out SiRNA MCM2 assessed as reduction in cell viability incubated for 72 hrs by SRB assay relative to control; assay type: functional
NCI-H1975 [11] = assay: Antitumor activity against human NCI-H1975 cells xenografted in athymic nude BALB/c mouse assessed as tumor growth inhibition at 1 mg/kg, ip administered for 4 weeks relative to control; assay type: functional; details: 672 h, read-out: TGI
NCI-H1975 [12] = assay: Cell cycle arrest in human NCI-H1975 cells assessed as accumulation in G2/M phase at 140 nM incubated for 72 hrs by propidium iodide base flow cytometry analysis (reference value: 17 %); assay type: functional
[13] = molecular target: DNA replication licensing factor MCM7 (Homo sapiens) (UniProt P33993); assay: Induction of ubiquitination of MCM7 in human NCI-H1975 cells incubated for 24 hrs by immunoblot analysis (reference value: 1); assay type: cell-based
[14] = molecular target: T2, DNA replication licensing factor MCM6 (Homo sapiens) (UniProt Q14566); assay: Induction of ubiquitination of MCM6 in human NCI-H1975 cells incubated for 24 hrs by immunoblot analysis (reference value: 1); assay type: cell-based
T2 sequence (whole entry): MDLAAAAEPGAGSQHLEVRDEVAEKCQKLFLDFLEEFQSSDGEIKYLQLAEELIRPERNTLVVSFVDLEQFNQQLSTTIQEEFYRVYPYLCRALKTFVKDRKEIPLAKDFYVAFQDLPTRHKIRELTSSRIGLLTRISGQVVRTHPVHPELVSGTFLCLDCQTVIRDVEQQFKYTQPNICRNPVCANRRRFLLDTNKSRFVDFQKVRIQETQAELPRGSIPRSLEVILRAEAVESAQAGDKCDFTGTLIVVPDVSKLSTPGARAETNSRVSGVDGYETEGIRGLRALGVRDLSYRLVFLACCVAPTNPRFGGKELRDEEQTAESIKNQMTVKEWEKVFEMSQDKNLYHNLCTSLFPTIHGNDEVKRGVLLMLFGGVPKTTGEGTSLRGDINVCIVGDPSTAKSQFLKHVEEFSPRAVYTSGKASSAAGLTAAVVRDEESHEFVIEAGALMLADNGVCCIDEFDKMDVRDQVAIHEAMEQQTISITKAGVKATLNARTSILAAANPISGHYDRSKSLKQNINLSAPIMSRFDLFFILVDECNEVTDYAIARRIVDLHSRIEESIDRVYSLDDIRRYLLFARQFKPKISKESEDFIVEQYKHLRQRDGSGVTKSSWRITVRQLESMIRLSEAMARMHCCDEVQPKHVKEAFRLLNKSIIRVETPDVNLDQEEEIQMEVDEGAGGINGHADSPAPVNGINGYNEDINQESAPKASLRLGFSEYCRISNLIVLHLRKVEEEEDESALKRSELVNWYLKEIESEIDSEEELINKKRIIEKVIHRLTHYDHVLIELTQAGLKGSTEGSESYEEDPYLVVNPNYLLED

[15] = Selectivity index, ratio of IC50 for human bronchial epithelial cells to IC50 for human PC9IR cells; assay type: toxicity; details: human bronchial epithelial cells versus PC9IR cells, read-out: Ratio IC50
[16] = Selectivity index, ratio of IC50 for human bronchial epithelial cells to IC50 for human NCI-H1975 cells; assay type: toxicity; details: human bronchial epithelial cells versus NCI-H1975 cells, read-out: Ratio IC50
NCI-H1975 [17] = assay: Antiproliferative activity against human NCI-H1975 cells harboring FLAG-tagged MCM2 assessed as reduction in cell viability incubated for 72 hrs by SRB assay; assay type: functional, cell-based; details: NCI-H1975, 72 h

Sequence of DNA replication licensing factor MCM7 (Homo sapiens) (P33993 whole entry): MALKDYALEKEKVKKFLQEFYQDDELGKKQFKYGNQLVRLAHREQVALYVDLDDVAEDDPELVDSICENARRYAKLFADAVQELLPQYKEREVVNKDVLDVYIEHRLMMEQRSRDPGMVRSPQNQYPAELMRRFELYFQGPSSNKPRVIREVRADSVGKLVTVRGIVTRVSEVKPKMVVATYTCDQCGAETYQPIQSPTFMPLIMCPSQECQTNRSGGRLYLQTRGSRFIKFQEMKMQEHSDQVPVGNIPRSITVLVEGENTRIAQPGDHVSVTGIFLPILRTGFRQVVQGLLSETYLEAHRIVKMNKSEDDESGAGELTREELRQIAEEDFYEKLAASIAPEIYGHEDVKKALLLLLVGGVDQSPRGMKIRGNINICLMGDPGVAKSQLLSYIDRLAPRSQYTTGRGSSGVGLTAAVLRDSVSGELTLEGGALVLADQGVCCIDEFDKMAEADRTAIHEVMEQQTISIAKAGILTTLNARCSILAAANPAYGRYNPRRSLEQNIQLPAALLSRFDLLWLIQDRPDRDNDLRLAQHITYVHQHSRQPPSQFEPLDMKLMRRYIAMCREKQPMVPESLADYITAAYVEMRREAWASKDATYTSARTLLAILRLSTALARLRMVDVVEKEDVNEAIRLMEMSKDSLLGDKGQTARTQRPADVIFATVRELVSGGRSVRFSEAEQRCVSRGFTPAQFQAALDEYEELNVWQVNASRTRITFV
Sequence of DNA replication licensing factor MCM2 (Homo sapiens) (P49736 whole entry): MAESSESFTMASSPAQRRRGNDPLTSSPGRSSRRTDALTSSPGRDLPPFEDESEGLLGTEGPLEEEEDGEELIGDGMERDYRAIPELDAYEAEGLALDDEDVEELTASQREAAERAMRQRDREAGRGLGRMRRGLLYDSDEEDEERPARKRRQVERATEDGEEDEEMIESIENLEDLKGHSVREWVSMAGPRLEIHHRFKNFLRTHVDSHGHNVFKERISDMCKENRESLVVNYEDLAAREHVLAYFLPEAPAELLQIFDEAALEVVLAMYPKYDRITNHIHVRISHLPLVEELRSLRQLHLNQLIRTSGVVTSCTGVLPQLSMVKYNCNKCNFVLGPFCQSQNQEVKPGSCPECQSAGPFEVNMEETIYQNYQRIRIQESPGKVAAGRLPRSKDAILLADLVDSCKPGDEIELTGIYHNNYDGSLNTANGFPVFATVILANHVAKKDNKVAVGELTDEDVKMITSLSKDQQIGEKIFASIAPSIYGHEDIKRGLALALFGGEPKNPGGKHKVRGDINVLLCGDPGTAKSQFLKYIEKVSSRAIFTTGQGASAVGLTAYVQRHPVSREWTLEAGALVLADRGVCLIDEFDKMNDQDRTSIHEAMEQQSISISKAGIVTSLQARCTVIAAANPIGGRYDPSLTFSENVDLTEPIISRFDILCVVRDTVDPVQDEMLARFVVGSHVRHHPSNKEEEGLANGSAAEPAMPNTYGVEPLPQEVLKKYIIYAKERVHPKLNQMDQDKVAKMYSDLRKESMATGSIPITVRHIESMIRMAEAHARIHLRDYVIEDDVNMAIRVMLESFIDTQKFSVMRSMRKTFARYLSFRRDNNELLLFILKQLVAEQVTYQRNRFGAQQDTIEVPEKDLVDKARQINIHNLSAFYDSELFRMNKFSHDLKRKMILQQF

Activity [3]: 1.1 | Activity [4]: 0.5 | Activity [7]: Active | Activity [8]: 1.6 | Activity [9]: 1.1 | Activity [13]: 0.8 | Activity [14]: 0.5 | IC50 (NCI-H1975 [17]): 71 nM
Structure (SMILES): Cc1oc2c(c1C(=O)NCCCn1ccnc1)C(=O)c1ccccc1C2=O
selectivity ratio [1]: > 10 | Activity (NCI-H1975 [2]): 16% | Activity (NCI-H1975 [5]): Active | Activity [6]: Non-Toxic | inhibition (INH) (NCI-H1975 [10]): 33% | inhibition in vivo at 1 mg/kg (NCI-H1975 [11]): 44% | Activity (NCI-H1975 [12]): 38% | selectivity ratio [15]: > 10 | selectivity ratio [16]: > 10
